Reference: PubChem BioAssay (NCI)
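Cells were grown in 96-well plates and exposed to each compound for 48 hours at five concentrations; endpoints were interpolated linearly between bracketing concentrations, or set to the highest concentration if not reached. GI50 = concentration required for 50% inhibition of growth. TGI: total growth inhibition.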

How the values were obtained:
Test in all cases: NCI anticancer screen, dose series, 48 h
[1] = system: 786-0 renal
[2] = system: LOX IMVI melanoma
[3] = system: NCI-H23 lung
[4] = system: SK-MEL-28 melanoma
[5] = system: M14 melanoma
[6] = system: MDA-MB-435
[7] = system: SF-295 CNS
[8] = system: HCT-116 colon
[9] = system: COLO 205 colon
[10] = system: HCC-2998 colon

| Structure (SMILES) | TGI [1] [nM] | TGI [2] [nM] | TGI [3] [nM] | TGI [4] [nM] | TGI [5] [nM] | TGI [6] [nM] | TGI [7] [nM] | TGI [8] [nM] | TGI [9] [nM] | GI50 [1] [nM] | GI50 [2] [nM] | GI50 [3] [nM] | GI50 [10] [nM] | TGI [10] [nM] | GI50 [4] [nM] | GI50 [5] [nM] | GI50 [6] [nM] | GI50 [7] [nM] | GI50 [8] [nM] | GI50 [9] [nM] |
| --- | --- | --- | --- | --- | --- | --- | --- | --- | --- | --- | --- | --- | --- | --- | --- | --- | --- | --- | --- | --- |
| O=C(O)COc1c(Cl)cc(Cl)c2cccnc12 | > 100000 | > 100000 | > 100000 | > 100000 | > 100000 | > 100000 | > 100000 | > 100000 | > 100000 | – | – | – | – | – | – | – | – | – | – | – |
| CC(C)(C)c1ccc(C(=O)Nc2sc3c(c2C(N)=O)CCC(=O)C3)cc1 | 5070 | 1510 | 1860 | 2770 | 1570 | 3700 | 2730 | 1290 | 1630 | 1860 | 398 | 423 | 1970 | 4220 | 1130 | 413 | 1670 | 1210 | 287 | 617 |
| O=C(Nc1cccc(Nc2ncc(Br)c(NCCc3cnc[nH]3)n2)c1)N1CCCC1 | 32600 | 7400 | 21300 | 28600 | 21800 | 18500 | 20800 | > 60000 | 4060 | 9360 | 1110 | 2980 | 9110 | 24300 | 8600 | 6230 | 2620 | 3720 | 1560 | 562 |
| C[C@@H]1O[C@@H](O[C@H]2CC[C@@]3(C)[C@H](CCC4[C@@H]3C(O)C[C@]3(C)[C@@H](c5ccc(=O)oc5)CC[C@]43O)C2)[C@H](O)[C@H](O)[C@H]1O (some centres undefined) | 16.9 | 10.1 | 6.72 | 11.9 | 14.8 | 13.1 | 29.1 | 5.44 | 13 | 4.09 | 5.19 | < 3.25 | 7.5 | 16.8 | 6.2 | 6.09 | 6.33 | 6.64 | < 3.25 | 6.64 |
| Cc1ccc(C2=Nc3ccccc3SC(c3cccc([N+](=O)[O-])c3)C2)cc1 (centres undefined) | 27000 | – | > 100000 | > 100000 | > 100000 | 79200 | > 100000 | 20800 | > 100000 | – | – | – | – | – | – | – | – | – | – | – |
| CN1CCC(n2cnc(-c3ccc(F)cc3)c2-c2ccnc(N)n2)CC1 | > 25000 | > 25000 | > 25000 | > 25000 | > 25000 | > 25000 | > 25000 | > 25000 | > 25000 | 11600 | 6950 | 10600 | 8980 | > 25000 | > 23800 | 11700 | 8820 | 9360 | 8190 | 7070 |
| c1ccc2c3c([nH]c2c1)C1CCCN1CC3 (centres undefined) | > 10000 | > 10000 | > 10000 | > 10000 | > 10000 | > 10000 | > 10000 | – | > 10000 | – | – | – | – | > 10000 | – | – | – | – | – | – |
| Cc1ccc(NC(=O)c2ccccc2C(=O)O)cc1C | > 100000 | > 100000 | > 100000 | > 100000 | > 100000 | > 100000 | > 100000 | > 100000 | > 100000 | – | – | – | – | – | – | – | – | – | – | – |
| C[C@@H]1O[C@@H](OC[C@H]2O[C@@H](OCCc3ccc(O)c(O)c3)[C@H](O)[C@@H](O)[C@@H]2OC(=O)/C=C/c2ccc(O)c(O)c2)[C@H](O)[C@H](O)[C@H]1O | > 100000 | > 100000 | – | > 100000 | > 100000 | > 100000 | > 100000 | > 100000 | > 100000 | > 100000 | > 100000 | – | 69300 | > 100000 | > 100000 | > 100000 | > 100000 | > 100000 | 50500 | > 100000 |
| COc1ccc(C(=O)N2c3ccccc3Sc3ccccc32)c(OC)c1 | > 100000 | > 100000 | > 100000 | > 100000 | > 100000 | 953 | > 100000 | > 100000 | – | 480 | 601 | 776 | 1490 | 8090 | 942 | 359 | 212 | 484 | 452 | – |
| CN(CCCCCl)P(=O)(OCCS(=O)(=O)CC(NC(=O)CCC(N)C(=O)O)C(=O)NC(C(=O)O)c1ccccc1)OCC1OC(n2cc(F)c(=O)[nH]c2=O)CC1O (centres undefined) | 2620 | 52200 | > 33700 | > 100000 | 2850 | > 100000 | > 53800 | 39900 | > 100000 | 15.5 | < 12.7 | 270 | – | – | 15200 | 64.7 | 2270 | 36.8 | 161 | 10100 |
| CCN(CCO)CC(C)Nc1ccc([N+](=O)[O-])c2sc3ccccc3c(=O)c12 (centres undefined) | 3970 | 2690 | 6400 | 10300 | 3450 | 3800 | 2120 | 2690 | 5960 | 1370 | 746 | 1780 | – | – | 2680 | 1540 | 1540 | 488 | 996 | 1620 |
| O=[N+]([O-])c1cc(S(=O)(=O)Oc2ccccc2)ccc1Cl | 15500 | 3690 | 37900 | 6400 | 4280 | 3090 | – | 3430 | 14400 | 4650 | 1780 | 16500 | 1740 | 3330 | 2670 | 2060 | 1640 | – | 1850 | 3850 |
| CN1CCN(Cc2ccc(NC(=O)c3[nH]ncc3Nc3ncnc4sc5c(c34)CCCC5)cc2)CC1 | 1900 | 1710 | – | 2080 | 1640 | 1710 | 1780 | – | – | 365 | 289 | – | 535 | 2070 | 512 | 324 | 291 | 373 | – | – |
